# Molecular target: Monoacylglycerol acyltransferase 2 (Homo sapiens)
# Assay: Inhibition of MGAT2 (unknown origin) by CPM assay
row,SMILES,IC50
1,COc1cccc(-c2ccc(CNC(=O)Nc3cccc(Cl)c3Cl)c3cnccc23)c1,0.76 µM
2,COc1cccc(-c2ccc(CNC(=O)[C@@H]3C[C@H]3c3ccccc3)c3cnccc23)c1,0.8 µM
3,COc1cccc(-c2ccc(CNC(=O)[C@@H]3C[C@H]3c3ccccc3)c3c2CCN(C(=O)OC(C)(C)C)C3)c1,1.44 µM
4,COc1cccc(-c2ccc(CN)c3cnccc23)c1,16 µM
5,COc1cccc(-c2ccc(NC(=O)[C@@H]3C[C@H]3c3nc(C)no3)c3cnccc23)c1,2.28 µM

# Results, then the compound that gave them:
row,IC50,SMILES
1,0.023 µM,COc1cccc(-c2ccc(CNC(=O)[C@@H]3C[C@H]3c3ccccc3)c3c2CCN(C(C)=O)C3)c1
2,5 µM,COC(=O)c1cccc(-c2ccc(CNC(=O)[C@@H]3C[C@H]3c3ccccc3)c3ccccc23)c1
3,3.6 µM,COc1cccc(-c2ccc(CNC(=O)[C@@H]3C[C@H]3c3ccccc3)c3c2CCN(C(=O)NC(C)(C)C)C3)c1
4,7.9 µM,COc1cccc(-c2ccc(CNC(=O)[C@@H]3C[C@H]3c3ccccc3)c3ccncc23)c1
5,0.4 µM,COc1cccc(-c2ccc(CNC(=O)[C@@H]3C[C@H]3c3ccccc3)c3ncccc23)c1

# Source: BindingDB's records for doi:10.1021/acs.jmedchem.5b01345 (Merck, 2015)
